Key:
[1] = tested on: human glioma U87 cells subcutaneous implantation; experiment: Subcutaneous U87 glioma model, combination with temozolomide (Example 5); format: in vivo, mouse
Experimental: (§1) For the subcutaneous glioma model, human U87 glioma cells were cultured, and during the logarithmic growth phase, they were inoculated into the axillae of nude mice. After two passages, the tumor tissue was collected under sterile conditions, and the tumor mass was cut into uniform small pieces approximately the size of grains of rice, which were then inoculated subcutaneously in the axillae of nude mice using an implantation needle. Once the tumor grew to approximately 100 mm^3, the mice were randomly grouped, and the treatment began. All samples were dissolved in PBS, with an injection volume of 50 μL/tumor. The length and width of the tumor were measured every three days, and the tumor volume was calculated using the formula: […]
In this example, a subcutaneous implantation model using human glioma U87 cells in BALB/c nu/nu mice was adopted. U87 human glioblastoma cells were inoculated into the armpits of the nude mice during the logarithmic growth phase. When the tumor grew to approximately 100 mm^3, appropriate tumor-bearing mice were randomly grouped. After grouping, treatment commenced, with the PBS group serving as the control. The Ad5-AN group received a dose of 1×10^9 PFU, while the temozolomide (TMZ) gavage group received 15 mg/kg once daily for five days, followed by two days off. Additionally, there was a combination treatment group of Ad5-AN and temozolomide (Ad5-AN+TMZ), with Ad5-AN administered every two days for a total of five doses. Tumor volume was measured every three days, and later, the animals were euthanized to weigh the tumors and perform biochemical and molecular analyses.

[2] = tested on: glioma cells (U87-luc) implanted into the brain; experiment: Brain orthotopic glioma model U87-luc (Example 6); format: in vivo, mouse; details: Ad5-AN 1×10^9 PFU every four days, three doses, TMZ 15 mg/kg, PBS group 22.3 days
Experimental: For the orthotopic glioma model, 7-week-old NOD-scid mice were used. Human glioma cells, either induced with […] or not induced, were centrifuged to remove the supernatant, resulting in a cell density of approximately 2.5×10^5 cells/μL. A total of 2 μL (5×10^5 cells) was implanted into the striatum of each mouse. After three weeks, histological analysis or viral injection was performed, followed by immunohistochemical detection.
In this example, glioma cells (U87-luc) were first implanted into the brain (5×10^5 cells). After 7 days of implantation, the mice were grouped for treatment, with the PBS group serving as the control. The Ad5-AN group received a dose of 1×10^9 PFU, while the temozolomide (TMZ) gavage group received 15 mg/kg once daily for five days, followed by two days off. Additionally, there was a combination treatment group of Ad5-AN and temozolomide, with Ad5-AN administered every four days for a total of three doses.

human glioma tissue PDX = experiment: Patient-derived tumor xenograft (PDX) model from human glioma tissue (Example 7); format: in vivo, mouse
Experimental: To further validate the combined effect of oncolytic viruses and redifferentiation therapy, this implementation was tested in a patient-derived tumor xenograft (PDX) model constructed from human glioma tissue. PDX tissues were inoculated into the armpits of nude mice for passaging, and when they reached the logarithmic growth phase, they were re-inoculated into the armpits of nude mice. When the tumor grew to approximately 100 mm^3, appropriate tumor-bearing mice were randomly grouped. After grouping, treatment commenced, with the PBS group serving as the control. The Ad5-AN group received a dose of 1×10^9 PFU, while the temozolomide (TMZ) gavage group received 15 mg/kg once daily for five days, followed by two days off. Additionally, there was a combination treatment group of Ad5-AN and temozolomide, with Ad5-AN administered every two days for a total of five doses. Tumor volume was measured every three days, and later, the animals were euthanized to weigh the tumors and perform biochemical and molecular analyses.

[3] = tested on: human glioblastoma U87 ectopic implantation; experiment: Human glioblastoma U87 BALB/CA-nu mouse ectopic implantation model, recombinant HSV (Example 8); format: in vivo
Experimental: as §1
In this implementation, type 1 herpes simplex virus (HSV) was used as an oncolytic virus vector, with fragments from human Ascl1 (SEQ ID No. 11) and the coding sequence (CDS) of human Ngn2 (SEQ ID No. 15) inserted to achieve efficient co-expression of Ascl1 and Ngn2. After packaging and purifying the recombinant HSV, tests were conducted using a human glioblastoma U87 BALB/CA-nu mouse ectopic implantation model. […] Tumor volume was measured every three days, and later, the animals were euthanized to weigh the tumors and perform biochemical and molecular analyses. […]

[4] = U87 subcutaneous, extended experiment

In the case of Cn1nnc2c(C(N)=O)ncn2c1=O [temozolomide], the “time at which tumor growth approached 2000 mm^3” value [1, 4] is reported as “around 60 days”, the “time at which tumors gradually relapsed post-treatment” value [1, 4] is reported as “around 35 days” and the “tumor recurrence after 56 days” value ([1]; mice with recurrence / seven mice, FIG. 5) is reported as 7/7. The average survival [2] was 56.8 days, the “time at which tumors gradually relapsed post-treatment” value (human glioma tissue PDX) was “around 45 days” and the “time at which tumors reached nearly 2000 mm^3” value (human glioma tissue PDX) was “around 72 days”. The “tumors relapsed and began to regrow” value (human glioma tissue PDX; around 45 days post-treatment) was 6/6, the tumor volume decrease ([3]; after 10 days of treatment, HSV 2×10^6 PFU every two days, five doses, TMZ 15 mg/kg) was 73.6% and the tumor recurrence ([3]; after two months) was 6/6.

From patent US20250295717A1, “RE[…] OF R[…] VIRUS, COMBINATION, AND APPLICATION THEREOF” (NEUREGEN BIOTHERAPEUTICS (SHANGHAI) CO. LTD, priority 2022, published 2025)
